# Experimental data taken from patent US20240083890A1, “MACROCYCLIC BRANCHED 3-FLUORO-BUT-3-ENAMIDES AS INHIBITORS OF MCL-1” (JANSSEN PHARMACEUTICA NV, priority 2020, published 2024).
# Like-named read-outs stand apart in the source and are kept apart here.
# Legend:
# [1] = system: MOLP-8 human multiple myeloma cell line; experiment: Caspase-Glo 3/7 apoptosis induction assay in MOLP-8 cells; assay type: cell-based; details: caspase-3/7 activation, 2 hours incubation at 37° C., averaged over all runs on all batches, read-out: MOLP8 AC50
# Description: MCL-1 is a regulator of apoptosis and is highly over-expressed in tumor cells that escape cell death. The assay evaluates the cellular potency of small-molecule compounds targeting regulators of the apoptosis pathway, primarily MCL-1, Bfl-1, Bcl-2, and other proteins of the Bcl-2 family. Protein-protein inhibitors disrupting the interaction of anti-apoptotic regulators with BH3-domain proteins initiate apoptosis.
# The Caspase-Glo® 3/7 Assay is a luminescent assay that measures caspase-3 and -7 activities in purified enzyme preparations or cultures of adherent or suspension cells. The assay provides a proluminescent caspase-3/7 substrate, which contains the tetrapeptide sequence DEVD. This substrate is cleaved to release aminoluciferin, a substrate of luciferase used in the production of light. Addition of the single Caspase-Glo® 3/7 Reagent in an “add-mix-measure” format results in cell lysis, followed by caspase cleavage of the substrate and generation of a “glow-type” luminescent signal.
# This assay uses the MOLP-8 human multiple myeloma cell line, which is sensitive to MCL-1 inhibition.
# Cell cultures were maintained between 0.2 and 2.0×10^6 cells/mL. The cells were harvested by collection in 50 mL conical tubes. The cells were then pelleted at 500 g for 5 mins before removing supernatant and resuspension in fresh pre-warmed culture medium. The cells were counted and diluted as needed.
# The assay reagent was prepared by transferring the buffer solution to the substrate vial and mixing. The solution may be stored for up to 1 week at 4° C. with negligible loss of signal.
# Compounds were delivered in assay-ready plates (Proxiplate) and stored at −20° C.
# Assays always include 1 reference compound plate containing reference compounds. The plates were spotted with 40 nL of compounds (0.5% DMSO final in cells; serial dilution; 30 μM highest conc. 1/3 dilution, 10 doses, duplicates). The compounds were used at room temperature and 4 μL of pre-warmed media was added to all wells except column 2 and 23. The negative control was prepared by adding 1% DMSO in media. The positive control was prepared by adding the appropriate positive control compound in final concentration of 60 μM in media. The plate was prepared by adding 4 μL negative control to column 23, 4 μL positive control to column 2, and 4 μL cell suspension to all wells in the plate. The plate with cells was then incubated at 37° C. for 2 hours. The assay signal reagent is the Caspase-Glo solution described above, and 8 μL was added to all wells. The plates were then sealed and measured after 30 minutes.
# The activity of a test compound was calculated as percent change in apoptosis induction as follows: • LC=median of the Low Control values • =Central Reference in Screener • =DMSO • =0% • HC=Median of the High Control values • =Scale Reference in Screener • =30 μM of positive control • =100% apoptosis induction
# % Effect (AC50)=100−((sample-LC)/(HC-LC))*100
# % Control=(sample/HC)*100
# % Control min=((sample-LC)/(HC-LC))*100
# Table: Measured AC50 for Representative Compounds of Formula (I). Averaged values are reported over all runs on all batches of a particular compound.
# Mcl-1 = Mcl-1 (Homo sapiens (Human), UniProt Q07820); experiment: Terbium labeled Mcl-1 HTRF binding assay, displacement of Cy5-labeled BIM BH3 peptide; details: Ki=IC50/(1+[L]/Kd), [L]=8 nM, Kd=10 nM; 25 pM Tb-Mcl-1, 8 nM Cy5 Bim peptide, 60 min; read-out: Tb-MCL1 Ki
# Experimental: Terbium labeled Myeloid Cell Leukemia 1(Mcl-1) homogeneous time-resolved fluorescence (HTRF) binding assay utilizing the BIM BH3 peptide (H2N—(C/Cy5Mal) WIAQELRRIGDEFN-OH) as the binding partner for Mcl-1.
# This assay evaluated inhibition of the BH3 domain: Mcl-1 interaction by measuring the displacement of Cy5-labeled BIM BH3 peptide (H2N—(C/Cy5Mal) WIAQELRRIGDEFN-OH) in the HTRF assay format.
# The following assay and stock buffers were prepared for use in the assay: (a) Stock buffer: 10 mM Tris-HCl, pH=7.5+150 mM NaCl, filtered, sterilized, and stored at 4° C.; and (b) 1× assay buffer, where the following ingredients were added fresh to stock buffer: 2 mM dithiothreitol (DTT), 0.0025% Tween-20, 0.1 mg/mL bovine serum albumin (BSA). The 1× Tb-Mcl-1+Cy5 Bim peptide solution was prepared by diluting the protein stock solution using the 1× assay buffer (b) to 25 pM Tb-Mcl-1 and 8 nM Cy5 Bim peptide.
# Using the Acoustic ECHO, 100 nL of 100× test compound(s) were dispensed into individual wells of a white 384-well Perkin Elmer Proxiplate, for a final compound concentration of 1× and final DMSO concentration of 1%. Inhibitor control and neutral control (NC, 100 nL of 100% DMSO) were stamped into columns 23 and 24 of assay plate. Into each well of the plate was then dispensed 10 μL of the 1× Tb-Mcl-1+Cy5 Bim peptide solution. The plate was centrifuged with a cover plate at 1000 rpm for 1 minute, then incubated for 60 minutes at room temperature with plates covered.
# The TR-FRET signal was read on an BMG PHERAStar FSX MicroPlate Reader at room temperature using the HTRF optic module (HTRF: excitation: 337 nm, light source: laser, emission A: 665 nm, emission B: 620 nm, integration start: 60 μs, integration time: […]).
# The BMG PHERAStar FSX MicroPlate Reader was used to measure fluorescence intensity at two emission wavelengths—665 nm and 620 nm—and report relative fluorescence units (RFU) for both emissions, as well as a ratio of the emissions (665 nm/620 nm)*10,000. The RFU values were normalized to percent inhibition as follows:
# % inhibition (((NC−IC)−(compound-IC))/(NC−IC))*100
# where IC (inhibitor control, low signal)=mean signal of 1× Tb-MCl-1+Cy5 Bim peptide+inhibitor control or 100% inhibition of Mel-1; NC (neutral control, high signal)=mean signal 1× Tb-MCI-1+Cy5 Bim peptide with DMSO only or 0% inhibition
# An 11-point dose response curve was generated to determine IC50 values (using GenData) based on the following equation:
# Y=Bottom+(Top-Bottom)/(1+10^((log IC50−X)*HillSlope))
# where Y=% inhibition in the presence of X inhibitor concentration; Top=100% inhibition derived from the IC (mean signal of Mcl-1+inhibitor control); Bottom=0% inhibition derived from the NC (mean signal of Mcl-1+DMSO); Hillslope=Hill coefficient; and IC50=concentration of compound with 50% inhibition in relation to top/neutral control (NC).
# In this assay [L]=8 nM and Kd=10 nM
# Representative compounds of the present invention were tested according to the procedure as described above, with results as listed in the Table below (n.d. means not determined).
# Sequence of Mcl-1 (Q07820 whole entry): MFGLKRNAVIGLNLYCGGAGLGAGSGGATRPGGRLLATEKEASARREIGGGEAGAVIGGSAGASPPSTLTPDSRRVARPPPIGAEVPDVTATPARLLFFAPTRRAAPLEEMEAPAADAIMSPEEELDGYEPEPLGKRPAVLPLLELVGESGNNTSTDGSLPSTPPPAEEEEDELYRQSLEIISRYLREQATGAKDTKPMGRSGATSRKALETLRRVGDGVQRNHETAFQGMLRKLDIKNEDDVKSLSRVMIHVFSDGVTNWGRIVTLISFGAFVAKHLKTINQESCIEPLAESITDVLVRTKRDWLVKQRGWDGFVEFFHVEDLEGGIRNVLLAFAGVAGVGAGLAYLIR
SMILES,"AC50 ([1]; Homo sapiens, MOLP-8) [nM]",Ki (Mcl-1) [nM],AC50 [1] [nM]
"C[C@@H]1[C@@H](C)C/C=C(\F)C(C(O)COCC2CCOCC2)N2CC[C@H]2CN2C[C@@]3(CCCc4cc(Cl)ccc43)COc3ccc(cc32)C(=O)NS1(=O)=O (single isomer, unassigned) [Compound 5]",238,0.23,
C[C@@H]1[C@@H](C)C/C=C(\F)[C@H]([C@@H](C)O)N2CC[C@H]2CN2C[C@@]3(CCCc4cc(Cl)ccc43)COc3ccc(cc32)C(=O)NS1(=O)=O [Compound 1],116,0.326,
C[C@H](O)[C@H]1/C(F)=C/C[C@H](C)[C@@H](C)S(=O)(=O)NC(=O)c2ccc3c(c2)N(C[C@@H]2CCN21)C[C@@]1(CCCc2cc(Cl)ccc21)CO3 [Compound 2],122,0.106,
C[C@@H]1[C@@H](C)C/C=C(\F)[C@H]([C@@H](C)O)N2CCC[C@H]2CN2C[C@@]3(CCCc4cc(Cl)ccc43)COc3ccc(cc32)C(=O)NS1(=O)=O [Compound 3],217,1.56,
C[C@H](O)[C@H]1/C(F)=C/C[C@H](C)[C@@H](C)S(=O)(=O)NC(=O)c2ccc3c(c2)N(C[C@@H]2CCCN21)C[C@@]1(CCCc2cc(Cl)ccc21)CO3 [Compound 4],238,0.236,
C[C@@H]1[C@@H](C)C/C=C(\F)[C@H]([C@@H](O)COCC2CCOCC2)N2CC[C@H]2CN2C[C@@]3(CCCc4cc(Cl)ccc43)COc3ccc(cc32)C(=O)NS1(=O)=O [Compound 6],68.5,0.053,
COC[C@]1([C@@H]2COC(C)(C)O2)/C(F)=C/C[C@H](C)[C@@H](C)S(=O)(=O)NC(=O)c2ccc3c(c2)N(C[C@@H]2CCN21)C[C@@]1(CCCc2cc(Cl)ccc21)CO3 [Compound 7],134,0.221,
CO[C@@H](CO)[C@@]1(CO)/C(F)=C/C[C@H](C)[C@@H](C)S(=O)(=O)NC(=O)c2ccc3c(c2)N(C[C@@H]2CCN21)C[C@@]1(CCCc2cc(Cl)ccc21)CO3 [Compound 8],3960,0.357,
C[C@@H]1[C@@H](C)C/C=C(\F)[C@@]2(COC(C)(C)OC[C@@H]2O)N2CC[C@H]2CN2C[C@@]3(CCCc4cc(Cl)ccc43)COc3ccc(cc32)C(=O)NS1(=O)=O [Compound 9],64.8,0.04,
C[C@@H]1[C@@H](C)C/C=C(\F)[C@](CO)([C@@H]2COC(C)(C)O2)N2CC[C@H]2CN2C[C@@]3(CCCc4cc(Cl)ccc43)COc3ccc(cc32)C(=O)NS1(=O)=O [Compound 10],553,,
C[C@@H]1[C@@H](C)C/C=C(\F)[C@@]2(COC(C)(C)OC[C@@H]2O)N2CCC[C@H]2CN2C[C@@]3(CCCc4cc(Cl)ccc43)COc3ccc(cc32)C(=O)NS1(=O)=O [Compound 11],96.5,0.172,
CO[C@H]1COC(C)(C)OC[C@@]12/C(F)=C/C[C@H](C)[C@@H](C)S(=O)(=O)NC(=O)c1ccc3c(c1)N(C[C@@H]1CCCN12)C[C@@]1(CCCc2cc(Cl)ccc21)CO3 [Compound 12],885,0.359,
C[C@@H]1[C@@H](C)C/C=C(\F)C2(COC(C)(C)OC2)N2CC[C@H]2CN2C[C@@]3(CCCc4cc(Cl)ccc43)COc3ccc(cc32)C(=O)NS1(=O)=O [Compound 13],1110,1.77,
C[C@@H]1[C@@H](C)C/C=C(\F)C2(COC(C)(C)OC2)N2CCC[C@H]2CN2C[C@@]3(CCCc4cc(Cl)ccc43)COc3ccc(cc32)C(=O)NS1(=O)=O [Compound 14],759,0.241,
COC[C@H](OC)[C@@]1(COC)/C(F)=C/C[C@H](C)[C@@H](C)S(=O)(=O)NC(=O)c2ccc3c(c2)N(C[C@@H]2CCN21)C[C@@]1(CCCc2cc(Cl)ccc21)CO3 [Compound 15],503,,
COC[C@H](O)[C@@]1(COC)/C(F)=C/C[C@H](C)[C@@H](C)S(=O)(=O)NC(=O)c2ccc3c(c2)N(C[C@@H]2CCN21)C[C@@]1(CCCc2cc(Cl)ccc21)CO3 [Compound 16],222,0.072,
C[C@@H]1[C@@H](C)C/C=C(\F)[C@H]([C@@H](C)O)N2CCC[C@H]2CN2C[C@@]3(CCOc4cc(Cl)ccc43)COc3ccc(cc32)C(=O)NS1(=O)=O [Compound 17],3350,2.41,
C[C@H](O)[C@@H]1/C(F)=C/C[C@H](C)[C@@H](C)S(=O)(=O)NC(=O)c2ccc3c(c2)N(C[C@@H]2CCCN21)C[C@@]1(CCOc2cc(Cl)ccc21)CO3 [Compound 18],,0.606,3420
C[C@@H]1[C@@H](C)C/C=C(\F)[C@H]([C@@H](O)Cn2cccn2)N2CC[C@H]2CN2C[C@@]3(CCCc4cc(Cl)ccc43)COc3ccc(cc32)C(=O)NS1(=O)=O [Compound 19],126,0.049,
C[C@@H]1[C@@H](C)C/C=C(\F)[C@H]([C@@H](O)COC2CCOCC2)N2CCC[C@H]2CN2C[C@@]3(CCCc4cc(Cl)ccc43)COc3ccc(cc32)C(=O)NS1(=O)=O [Compound 20],272,0.052,
C[C@@H]1[C@@H](C)C/C=C(\F)[C@H]([C@@H](O)CN2CCOCC2)N2CC[C@H]2CN2C[C@@]3(CCCc4cc(Cl)ccc43)COc3ccc(cc32)C(=O)NS1(=O)=O [Compound 21],87.9,0.051,
